Key:
MRC5 = assay: Cytotoxicity against human MRC5 cells assessed as reduction in cell viability measured after 48 hrs by MTT assay; type: functional, cell-based; details: MRC5, 48 h
A-375 = assay: Cytotoxicity against human A375 cells assessed as reduction in cell viability measured after 48 hrs by MTT assay; type: functional, cell-based; details: A-375, 48 h
[1] = Inhibition of TNF-alpha induced NF-kappaB transcriptional activity in HEK293 cells expressing NF-kappaB-Luc measured after 48 hrs by luciferase assay; type: cell-based; details: Homo sapiens, HEK293, 48 h
Steryl-sulfatase [2] = target: T1, Steryl-sulfatase (Homo sapiens, UniProt P08842); assay: Inhibition of sulphatase in human MCF7 cells assessed as inhibition of E1-STS activity; type: cell-based
T1 sequence (P08842 whole entry): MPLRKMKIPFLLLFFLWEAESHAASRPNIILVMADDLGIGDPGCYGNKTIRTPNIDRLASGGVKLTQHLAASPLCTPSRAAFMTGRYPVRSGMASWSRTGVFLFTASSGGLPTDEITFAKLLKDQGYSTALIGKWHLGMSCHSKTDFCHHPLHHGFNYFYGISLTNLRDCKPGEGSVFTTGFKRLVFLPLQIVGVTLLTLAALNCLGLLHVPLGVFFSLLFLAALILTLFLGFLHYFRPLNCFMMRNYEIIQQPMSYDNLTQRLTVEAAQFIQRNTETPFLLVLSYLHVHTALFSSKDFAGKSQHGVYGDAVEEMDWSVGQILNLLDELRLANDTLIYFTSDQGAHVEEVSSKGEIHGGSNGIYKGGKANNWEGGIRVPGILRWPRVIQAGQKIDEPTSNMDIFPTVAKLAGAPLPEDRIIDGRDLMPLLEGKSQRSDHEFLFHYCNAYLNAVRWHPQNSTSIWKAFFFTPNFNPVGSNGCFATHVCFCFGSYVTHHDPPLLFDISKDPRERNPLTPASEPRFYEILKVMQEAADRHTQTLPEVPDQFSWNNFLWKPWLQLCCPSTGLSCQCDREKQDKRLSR

[3] = Octanol-water partition coefficient, log P of the compound; type: physicochemical
[4] = Cytotoxicity against human hTERT-HME1 cells assessed as reduction in cell viability by MTT assay; type: functional, cell-based
MDA-MB-231 [5] = assay: Cytotoxicity against human MDA-MB-231 cells assessed as reduction in cell viability by MTT assay; type: functional, cell-based
MCF7 [6] = assay: Cytotoxicity against human MCF7 cells assessed as reduction in cell viability by MTT assay; type: functional, cell-based
Aromatase [7] = target: T2, Aromatase (Homo sapiens, UniProt P11511); type: cell-based, MCF7
T2 sequence (P11511 whole entry): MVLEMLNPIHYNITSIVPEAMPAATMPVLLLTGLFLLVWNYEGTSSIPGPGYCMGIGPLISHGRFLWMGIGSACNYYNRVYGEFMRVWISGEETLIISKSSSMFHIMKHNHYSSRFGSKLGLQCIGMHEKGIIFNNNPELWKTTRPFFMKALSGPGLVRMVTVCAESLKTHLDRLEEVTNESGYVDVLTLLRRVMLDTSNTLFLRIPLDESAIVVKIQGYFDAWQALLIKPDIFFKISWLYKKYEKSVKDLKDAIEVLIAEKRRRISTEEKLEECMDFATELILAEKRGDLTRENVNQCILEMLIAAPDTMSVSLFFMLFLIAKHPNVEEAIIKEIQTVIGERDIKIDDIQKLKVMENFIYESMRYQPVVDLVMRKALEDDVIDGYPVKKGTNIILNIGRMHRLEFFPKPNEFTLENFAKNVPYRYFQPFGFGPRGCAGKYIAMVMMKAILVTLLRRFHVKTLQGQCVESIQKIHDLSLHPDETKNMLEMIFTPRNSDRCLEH
Description: Inhibition of aromatase in human MCF7 cells using [1beta-3H]androstenedione as substrate measured after 1 hr by liquid scintillation counting method

Steryl-sulfatase [8] = target: T1, Steryl-sulfatase; assay: Inhibition of placental sulphatase (unknown origin)
Aromatase [9] = target: T2, Aromatase
Description: Inhibition of aromatase (unknown origin) preincubated for 10 mins in presence of NADPH generating system followed by addition of dibenzylfluorescein as substrate measured after 30 mins by fluorescence quenching assay

A549 = assay: Antiproliferative activity against human A549 cells over-expressing CK2 assessed as growth inhibition; type: functional, cell-based
Casein kinase II = Casein kinase II (Homo sapiens, UniProt P19784+P67870+P68400); assay: Inhibition of recombinant human N-terminal 6His-tagged CK2 expressed in baculovirus infected Sf21 cells in presence of ATP by radiometric assay
[10] = Antiproliferative activity against human PC3 cells; type: functional, cell-based; details: PC-3
MCF7 [11] = assay: cells; details: Homo sapiens
Description: Antiproliferative activity against human MCF7 cells

MDA-MB-231 [12] = assay: cells; details: Homo sapiens
Description: Antiproliferative activity against human MDA-MB-231 cells

Chain of Casein kinase II (P67870 whole entry): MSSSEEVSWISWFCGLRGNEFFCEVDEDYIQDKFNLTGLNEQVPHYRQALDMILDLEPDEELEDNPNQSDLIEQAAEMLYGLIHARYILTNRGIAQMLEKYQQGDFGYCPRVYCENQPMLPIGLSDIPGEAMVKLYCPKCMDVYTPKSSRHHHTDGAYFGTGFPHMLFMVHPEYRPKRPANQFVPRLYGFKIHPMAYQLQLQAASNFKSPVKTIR
Chain of Casein kinase II (P68400 whole entry): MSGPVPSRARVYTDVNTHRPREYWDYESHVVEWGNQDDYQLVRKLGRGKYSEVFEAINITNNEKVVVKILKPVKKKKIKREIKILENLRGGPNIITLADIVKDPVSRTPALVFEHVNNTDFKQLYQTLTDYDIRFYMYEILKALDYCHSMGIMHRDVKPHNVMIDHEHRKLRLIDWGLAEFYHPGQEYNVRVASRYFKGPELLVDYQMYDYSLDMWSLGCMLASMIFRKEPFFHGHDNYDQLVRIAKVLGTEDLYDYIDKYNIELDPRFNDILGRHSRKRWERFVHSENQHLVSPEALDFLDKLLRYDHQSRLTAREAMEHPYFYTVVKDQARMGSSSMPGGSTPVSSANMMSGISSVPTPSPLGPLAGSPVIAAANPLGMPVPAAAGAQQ
Chain of Casein kinase II (P19784 whole entry): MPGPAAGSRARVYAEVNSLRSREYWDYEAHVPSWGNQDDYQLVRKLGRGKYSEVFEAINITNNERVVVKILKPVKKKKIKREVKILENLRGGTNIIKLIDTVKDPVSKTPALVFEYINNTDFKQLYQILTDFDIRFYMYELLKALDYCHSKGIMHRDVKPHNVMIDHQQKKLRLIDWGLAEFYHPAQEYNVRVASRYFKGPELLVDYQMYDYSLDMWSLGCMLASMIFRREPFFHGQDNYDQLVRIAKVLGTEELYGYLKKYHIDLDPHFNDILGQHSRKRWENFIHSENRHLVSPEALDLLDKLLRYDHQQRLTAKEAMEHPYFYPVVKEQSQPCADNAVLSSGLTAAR

Q: With `O=c1cc(-c2ccccc2)c2ccc(O)c(O)c2o1` as the compound, how does the IC50 (MRC5) read?
A: Its IC50 is 47 µM.

Q: What about the IC50 (A-375) of the same compound?
A: The IC50 was 39 µM.

Q: For `COc1cc(C2CC(=O)Oc3cc4c(cc32)OCO4)cc(OC)c1OC` (centres undefined), which IC50 [1] is on record?
A: The IC50 was 0.11 µM.

Q: With `Cc1cc(=O)oc2ccc(OS(N)(=O)=O)cc12` as the compound, how does the IC50 (Steryl-sulfatase [2]) read?
A: The IC50 was 0.38 µM.

Q: With `COc1cc(C2CC(=O)Oc3cc4c(cc32)OCO4)cc(OC)c1O` (centres undefined) as the compound, how does the logP [3] read?
A: The logP was 2.17.

Q: Which results are given for `COc1ccc2c(CSC3=CC(=O)c4ccccc4C3=O)cc(=O)oc2c1`?
A: IC50 [4]: 18.1 µM; IC50 (MDA-MB-231 [5]): 9.5 µM; IC50 (MCF7 [6]): 11.2 µM

Q: With `COc1ccc2c(Cc3ccccc3)c(-c3ccc(Cl)cc3)c(=O)oc2c1` as the compound, how does the IC50 (Aromatase [7]) read?
A: The IC50 was 0.08 µM.

Q: For `NS(=O)(=O)Oc1ccc2c(c1)OC(=O)C1CCCCCCCCCCC21` (centres undefined), which IC50 (Steryl-sulfatase [8]) is on record?
A: Its IC50 is 0.001 µM.

Q: For `COc1cc(C2CC(=O)Oc3cc4c(cc32)OCO4)cc(OC)c1OC(C)=O` (centres undefined), which IC50 (Aromatase [9]) is on record?
A: Its IC50 is 12.1 µM.

Q: What about the logP [3] of the same compound?
A: The logP was 2.17.

Q: Which results are given for `O=C1C=C(SCc2cc(=O)oc3cc(O)ccc23)C(=O)c2ccccc21`?
A: IC50 [4]: 18.1 µM; IC50 (MDA-MB-231 [5]): 9.5 µM; IC50 (MCF7 [6]): 11.2 µM

Q: Which results are given for `O=c1cc(C(F)(F)F)c2ccc(O)c(Cl)c2o1`?
A: IC50 (A549): 20.2 µM; IC50 (Casein kinase II): 0.4 µM

Q: Which IC50 [1] does the source give for `COc1cc(C2CC(=O)Oc3cc4c(c(OC)c32)OCO4)cc(OC)c1OC` (centres undefined) here?
A: Its IC50 is 0.11 µM.

Q: For `O=C(c1ccc(OCCN2CCCCC2)cc1)c1c(-c2ccc(O)cc2)sc2cc(O)ccc12` [RALOXIFENE], which IC50 [10] is on record?
A: The IC50 was > 40 µM.

Q: And the IC50 (MCF7 [11])?
A: Its IC50 is 15.4 µM.

Q: And the IC50 (MDA-MB-231 [12])?
A: Its IC50 is 18.5 µM.

Q: Which results are given for `CC/C(=C(\c1ccccc1)c1ccc(OCCN(C)C)cc1)c1ccccc1` [TAMOXIFEN]?
A: IC50 [10]: > 40 µM; IC50 (MCF7 [11]): 13.7 µM; IC50 (MDA-MB-231 [12]): 17.9 µM

Reference: ChEMBL document CHEMBL3826918, “Recent developments of C-4 substituted coumarin derivatives as anticancer agents” (Eur J Med Chem, 2016)
